Measurements from patent publication US20120108538A1, “SULFATED POLYSACCHARIDES HAVING ANTIPLASMODIAL ACTIVITY AND METHODS AND PRODUCTS FOR IDENTIFYING ANTIPLASMODIAL ACTIVITY” (priority 2009, published 2012).
In brackets after ≈: the same amount, converted by molar mass. Entries after “also recorded” stand apart in the source; their conditions may differ. Ends that are not written are not given here.

Key:
[1] = test system: purified P. falciparum merozoites invading RBCs; assay: Invasion inhibition assay (IIA) using purified merozoites; format: cell-based, Plasmodium falciparum
Method: Purified merozoites were mixed with uninfected RBCs and cultured using standard conditions in 96 well U-bottom plates at a final volume of 50 μl or 100 μl per well. Specific assay conditions were varied for different test conditions, as described in the Results section of the manuscript. Assays were typically performed under static conditions. Some assays were also performed with agitation of merozoite:RBC suspensions.
To test the activity of inhibitory compounds on invasion (Supporting Information Table 3), E64 treated schizonts were resuspended and filtered in culture medium without human serum. A typical merozoite invasion inhibition assay consisted of filtered merozoites (40 ul) added to RBC suspension (5 ul at […]; final concentration 1% hematocrit) and inhibitory compounds (5 ul at 10-times the final concentration required) in 96-well plates. Merozoite:RBCs suspensions containing inhibitors were incubated for one hour and then washed twice with culture medium to remove inhibitors, then resuspended in fresh culture media and incubated and analysed as for standard merozoite invasion assays. A number of compounds were also tested for inhibition of schizont rupture by incubating late stage schizonts (1-2% parasitaemia, 1% haematocrit in 50 ul) with a 1 in 10 dilution of compounds and monitoring the course of schizont rupture at 3 time points over an 8 hour period by flow cytometry.

P. falciparum schizonts = assay: Schizont rupture under E64 treatment; format: cell-based, Plasmodium falciparum; conditions: 10 uM E64
Method: Parasites were then incubated until most parasites had developed to late-stage pigmented trophozoites and schizonts (typically 40-42 hours). Early to mid schizont stage parasites (40-44 hours post invasion) were separated from uninfected RBC and early-stage infected RBCs (resulting in >95% purity) with a MAC magnet separation column (Macs Miltenyi Biotec). Purified schizonts were then incubated with 10 uM of E64 (Sigma) for 7-8 hours; Applicant typically used approximately 30 ml of culture media for every 100 ml of starting culture (3% hematocrit, 3% parasitemia). After approximately 6 hours of incubation with E64, treated schizonts were pelleted by centrifugation at 1900 g for 5 minutes. Supernatant was removed and schizonts were resuspended in fresh culture media. Resuspended E64 treated parasites were filtered through a 1.2 um Acrodisc 32 mm syringe filter (Pall Corporation). […]
To test the activity of inhibitory compounds on invasion (Supporting Information Table 3), E64 treated schizonts were resuspended and filtered in culture medium without human serum. […] Merozoite:RBCs suspensions containing inhibitors were incubated for one hour and then washed twice with culture medium to remove inhibitors, then resuspended in fresh culture media and incubated and analysed as for standard merozoite invasion assays. […]

[2] = test system: P. falciparum blood stage growth; assay: Growth inhibition assay (GIA), flow cytometry; format: cell-based, Plasmodium falciparum; conditions: for inhibitory activity against P. falciparum blood stage growth in GIA (words) / IC50, inhibition of P. falciparum blood stage growth in GIA: 3D7 parasite line; for IC50, inhibition of P. falciparum blood stage growth in GIA: one cycle of parasite growth
Method: P. falciparum was cultured as described. Parasites were maintained in culture media of RPMI-HEPES supplemented with 5% (vol/vol) heat inactivated (56° C. 1 hr) human serum (Australian Red Cross Blood Bank),. […] (Gibco), 10mM L-glutamine (Gibco) and 25 mM […]. Parasites were grown at 37° C., 2% hematocrit, O+ human erythrocytes (Australian Red Cross Blood Bank), 1% O2 4% CO2 95% N2 atmosphere. Sorbitol (Sigma-Aldrich) was used to synchronize cultures. 32. Persson K E, Lee C T, Marsh K, Beeson J G (2006) Development and optimization of high-throughput methods to measure Plasmodium falciparum-specific growth inhibitory antibodies. J Clin Microbiol 44: 1665-1673.33. Lambros C, Vanderberg J P (1979) Synchronization of Plasmodium falciparum erythrocytic stages in culture. J Parasitol 65: 418-420.
Heparin and K5 polysaccharides (Table 1) were tested for inhibitory activity against P. falciparum parasites using high throughput growth inhibitory assays (GlAs). Duplicate 25 μl suspensions of synchronized parasites, 2% parasitemia (32 hr trophozoite), 1% hematocrit with normal or enzymatically treated erythrocyctes, were incubated with inhibitory compounds in 96 well sterile U-bottom plates (Falcon). For humidification, outside wells were filled with sterile human tonicity phosphate-buffered saline (HT-PBS). Plates were incubated as for parasite culture for 44 hrs and analyzed. Parasites were stained with 10 μg/mL ethidium bromide (EtBr) (BioRad), HT-PBS, 1 hr in darkness. Cells were washed and re-suspended in 200 μL HT-PBS. Parasitemia was measured using FACSCalibur flow-cytometry. Data were analyzed using FlowJo (Tree Star), gating on intact erythrocytes and determining parasitemia by EtBr staining. Inhibitory effects of compounds were expressed as percent growth of uninhibited controls (HT-PBS) for each experiment.
Erythrocytes were treated with neuraminidase, chymotrypsin and trypsin as described previously. Erythrocytes were washed with RPMI-HEPES and incubated with neuraminidase ([…], 15 minutes), chymotrypsin (1 mg/mL, 45 minutes) or trypsin (100 μg/mL, […]) at 37° C. Neuraminidase treated bells were washed three times with RPMI-HEPES and chymotrypsin and trypsin treated cells were washed once with culture media and twice with RPMI-HEPES and then used in GIAs. 34. Persson K E, McCallum F J, Reiling L, Lister N A, Stubbs J, et al. (2008) Variation in use of erythrocyte invasion pathways by Plasmodium falciparum mediates evasion of human inhibitory antibodies. J Clin Invest 118: 342-351.

MSP1-42 [3] = target: T1, MSP1-42 (Plasmodium falciparum, UniProt Q8I0U8); assay: Binding of native merozoite proteins to heparin-agarose beads with soluble inhibitors; design: proteolytically processed into 83 kDa, 30 kDa, 38 kDa and a C-terminal 42kDa (MSP1-42) fragment; endogenous in cells; host or cells: P. falciparum schizont-stage cultures, Triton X-100 extract; species or system P. falciparum; conditions: soluble inhibitor 200 μg/mL
T1 sequence (Q8I0U8 1327-1699): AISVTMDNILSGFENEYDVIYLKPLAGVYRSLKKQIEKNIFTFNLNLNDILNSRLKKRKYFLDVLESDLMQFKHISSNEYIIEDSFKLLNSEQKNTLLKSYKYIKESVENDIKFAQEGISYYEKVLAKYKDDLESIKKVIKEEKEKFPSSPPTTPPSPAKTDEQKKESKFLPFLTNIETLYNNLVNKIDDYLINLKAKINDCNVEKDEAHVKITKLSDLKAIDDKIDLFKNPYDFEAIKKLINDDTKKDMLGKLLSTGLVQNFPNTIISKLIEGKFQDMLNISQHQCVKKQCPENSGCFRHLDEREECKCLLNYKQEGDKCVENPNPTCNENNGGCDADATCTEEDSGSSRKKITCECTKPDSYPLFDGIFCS
Source text: Synchronized schizont stage (40-48 hr, 5-8% parasitemia) cultures were used for protein extraction. Uninfected erythrocytes were lysed with 0.15% saponin (Kodak) on ice for ten minutes. Remaining pellets were washed three times with cold HT-PBS. Protein from schizonts was extracted with 5 times volume of 1% TritonX100 (TX100) (Sigma-Aldrich, Australia), HT-PBS with protease inhibitors (Roche). Insoluble components were pelleted by centrifugation and supernatants collected. Schizont TX100 extracted proteins were bound to heparin-agarose beads (Sigma-Aldrich, Australia) as previously described. Heparin-agarose beads were washed once with 1% casein in PBS, once in PBS, and then blocked with 1% casein in PBS overnight at 4° C. TX100 merozoite protein extracts where incubated with beads containing 0.1% casein and 200 μg/mL of test inhibitor, or PBS as control, overnight at 4° C.; 50 μL of packed beads and 100 μL protein and inhibitor were used or each test sample. Inhibitors used were heparin and CSC. Unbound proteins in the supernatant were collected through Micro Bio-Spin Chromatography Columns (Bio-Rad). After incubation, beads were washed five times with PBS containing 0.1% casein and 1% Triton X-100. Bound proteins were eluted from beads with 50 μL of warmed reducing sample buffer. Bound and unbound proteins were separated by SDS-PAGE under reducing conditions and blotted onto membranes for probing with antibody detection with anti-MSP1 or anti-EBA175. 36. Baum J, Chen L, Healer J, Lopaticki S, Boyle M, et al. (2009) Reticulocyte-binding protein homologue 5—an essential adhesin involved in invasion of human erythrocytes by Plasmodium falciparum: Int J Parasitol 39: 371-380.

lactoferrin = target: T2, lactoferrin (Homo sapiens, UniProt P02788); assay: Heparin-BSA binding assay (positive control protein); conditions: data not shown
T2 construct: purchased
T2 sequence (P02788 20-710, species assumed): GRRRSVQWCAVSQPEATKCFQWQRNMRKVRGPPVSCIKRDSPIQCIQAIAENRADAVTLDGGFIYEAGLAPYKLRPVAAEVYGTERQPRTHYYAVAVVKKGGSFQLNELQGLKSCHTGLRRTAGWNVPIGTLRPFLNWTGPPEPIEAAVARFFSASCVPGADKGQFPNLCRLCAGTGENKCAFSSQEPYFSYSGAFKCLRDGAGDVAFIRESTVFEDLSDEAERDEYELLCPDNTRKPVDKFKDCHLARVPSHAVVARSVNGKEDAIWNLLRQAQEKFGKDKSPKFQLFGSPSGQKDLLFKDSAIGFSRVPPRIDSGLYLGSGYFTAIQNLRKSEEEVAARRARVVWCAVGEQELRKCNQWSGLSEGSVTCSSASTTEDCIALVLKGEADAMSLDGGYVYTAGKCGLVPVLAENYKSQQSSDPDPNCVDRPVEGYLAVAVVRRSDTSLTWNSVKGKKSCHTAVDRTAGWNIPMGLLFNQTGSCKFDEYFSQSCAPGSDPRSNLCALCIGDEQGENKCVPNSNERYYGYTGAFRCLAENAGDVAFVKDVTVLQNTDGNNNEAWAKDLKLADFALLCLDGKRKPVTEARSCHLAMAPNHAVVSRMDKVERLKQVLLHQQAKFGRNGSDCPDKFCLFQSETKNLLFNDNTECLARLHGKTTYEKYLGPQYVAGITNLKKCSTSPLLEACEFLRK
Method: (§1) Recombinant merozoite antigens were coated (1 μg/mL) onto 96 well plates (Nunc Maxisorb) in HT-PBS overnight at 4° C. Plates were washed and blocked with 1% casein, 1 hr, room temperature. Plates were incubated with heparin-BSA conjugate with soluble inhibitors and detected with anti-BSA (rabbit) (Sigma-Aldrich) antibodies and anti-rabbit -HRP. Detection was performed with 2,2′-azino-bis(3-ethylbenzthiazoline-6-sulphonic acid) (Sigma-Aldrich) monitored for colour change and measured for absorbance at 405 nm. All incubations were performed in HT-PBS 0.1% casein 0:05% Tween20, 1 hr at room temperature. Plates were washed 3 times HT-PBS 0.05% Tween20 between incubations.

MSP1-42 [4] = target: T1, MSP1-42; assay: Heparin-BSA binding assay; design: a C-terminal 42kDa (MSP1-42) fragment; made in house; host or cells: E. coli; species or system P. falciparum; conditions: soluble inhibitor
Method: as §1

Molecule: CC(C)C[C@H](NC(=O)[C@H]1O[C@@H]1C(=O)O)C(=O)NCCCCN=C(N)N (relative stereo) [E64, trans-Epoxysuccinyl-L-leucylamido(4-guanidino)butane]
- effect on invasive capacity of merozoites ([1]; merozoites incubated with E64): did not affect
- effect on schizont rupture / merozoite release (P. falciparum schizonts): inhibiting rupture

Molecule: O=C(O)CN(CCN(CC(=O)O)CC(=O)O)CC(=O)O [EDTA]
- inhibition of merozoite invasion in IIA [1]: inhibited invasion

Molecule: CO[C@H]1O[C@H](COS(=O)(=O)O)[C@@H](O[C@@H]2O[C@@H](C(=O)O)[C@@H](O[C@H]3O[C@H](COS(=O)(=O)O)[C@@H](O[C@@H]4O[C@H](C(=O)O)[C@@H](O[C@H]5O[C@H](COS(=O)(=O)O)[C@@H](O)[C@H](O)[C@H]5NS(=O)(=O)O)[C@H](O)[C@H]4O)[C@H](OS(=O)(=O)O)[C@H]3NS(=O)(=O)O)[C@H](O)[C@H]2OS(=O)(=O)O)[C@H](O)[C@H]1NS(=O)(=O)O [Fondaparinux]
- IC50 ([2]; Plasmodium falciparum, read-out: IC50 against Plasmodium falciparum invasion): ~100 µg/mL (≈ 66.3 µM)

Molecule: C=C1[C@@H](C)[C@H]2[C@H](Cc3ccccc3)NC(=O)[C@]23[C@H](OC(C)=O)/C=C/[C@@](C)(O)C(=O)[C@@H](C)C/C=C/[C@H]3[C@@H]1O [cytochalasin D]
- inhibition of merozoite invasion in IIA [1]: effectively inhibited merozoite invasion

Molecule: VFAEFLPLFSKFGSRMHILK [AMA1-binding peptide]
- inhibition of merozoite invasion in IIA [1]: effectively inhibited merozoite invasion

Molecule: chondroitin sulfate B-2,4-di-sulfated [CSB-2,4-OS]
- inhibitory activity against P. falciparum blood stage growth in GIA (words) [2]: not inhibitory

Molecule: chondroitin sulfate B-2-6-di-sulfated [CSB-2,6-OS]
- inhibitory activity against P. falciparum blood stage growth in GIA (words) [2]: some inhibitory activity

Molecule: chondroitin sulfate C [CSC]
- inhibition of native MSP1-42 binding to heparin-agarose beads (MSP1-42 [3]): not
- inhibitory activity against P. falciparum blood stage growth in GIA (words) [2]: non-inhibitory; also recorded: not inhibitory
- inhibition of lactoferrin binding to heparin-BSA (lactoferrin): not

Molecule: chondroitin sulfate D [CSD]
- inhibitory activity against P. falciparum blood stage growth in GIA (words) [2]: not inhibitory

Molecule: chondroitin sulfate E [CSE]
- inhibition of different P. falciparum lines ([2]; 3D7, W2mef, D10, E8B, XIE, HCS3, SA-dependent and SA-independent invasion): inhibited to similar levels
- IC50, inhibition of P. falciparum blood stage growth in GIA [2]: 26.7 µg/mL

Molecule: de-2-O-sulfated heparin
- inhibitory activity against P. falciparum blood stage growth in GIA (words) [2]: reduced activity
- IC50, inhibition of P. falciparum blood stage growth in GIA [2]: 123 µg/mL

Molecule: de-6-O-sulfated heparin
- inhibition of heparin-BSA binding to recombinant MSP1-42 (MSP1-42 [4]): inhibition
- inhibition of native MSP1-42 binding to heparin-agarose beads (MSP1-42 [3]): not
- inhibition of native MSP1-42 binding to heparin-agarose beads (MSP1-42 [3]; listed as de-60-sulfated): unable to inhibit binding
- inhibitory activity against P. falciparum blood stage growth in GIA (words) [2]: reduced activity
- IC50, inhibition of P. falciparum blood stage growth in GIA [2]: 373 µg/mL

Molecule: de-N de-O-sulfated heparin [de-N/O-sulfated heparin]
- inhibition of heparin-BSA binding to recombinant MSP1-42 (MSP1-42 [4]): inhibition
- inhibitory activity against P. falciparum blood stage growth in GIA (words) [2]: loss of inhibitory activity
- inhibitory activity against P. falciparum blood stage growth in GIA (words) ([2]; listed as Completely desulfated heparin): no activity

Molecule: de-N-sulfated heparin
- inhibition of native MSP1-42 binding to heparin-agarose beads (MSP1-42 [3]): not
- inhibition of native MSP1-42 binding to heparin-agarose beads (MSP1-42 [3]; listed as de-N-sulfated): unable to inhibit binding
- inhibitory activity against P. falciparum blood stage growth in GIA (words) [2]: no activity
- inhibitory activity against P. falciparum blood stage growth in GIA (words) ([2]; listed as de-N-sulfated): loss of inhibitory activity

Molecule: dextran sulfate
- IC50, inhibition of P. falciparum blood stage growth in GIA [2]: 37 µg/mL

Molecule: fucoidan
- IC50, inhibition of P. falciparum blood stage growth in GIA [2]: 38 µg/mL
